# Assay results from patent US20170231949A1, “CELL REPAIR AGENT AND DISINFECTION SYSTEM” (priority 2014, published 2017).
# Legend:
# Assay type in all cases: cell-based
# [1] = system: mouse fibroblasts in growth phase; test: Tests 4, 6, 7, 8: post-treatment after acidic electrolyzed water, degree of cell proliferation by MTT method; conditions: 24 hours culture
# Protocol: (§1) Similarly to Test 1, mouse fibroblasts in growth phase were treated with four-fold-diluted acidic electrolyzed water and undiluted acidic electrolyzed water for 30 seconds. After washing with phosphate-buffered saline, 100 μl of 140 mM DMSO or 1 mg/ml proanthocyanidin prepared with serum-free DMEM was added to each well, and then cells were cultured for 30 minutes under conditions of 37° C. and 5% CO2. After washing with PBS, fresh medium was added, and then the degree of cell proliferation after 24 hours of culture under conditions of 37° C. and 5% CO2 was determined by the MTT method. In addition, a significant difference between groups was tested by Tukey-Krammer's multiple comparison test (multiple comparative analysis).
# as §1, with “4,” for “1,”, “PBS,” for “phosphate-buffered saline,”, “of” for “of 140 mM DMSO or”, “(+)-catechin (Tokyo Chemical Industry Co., Ltd.)” for “proanthocyanidin”, “followed by” for “and then cells were cultured for”, “minutes of culture” for “minutes”
# Similarly to Test 4, mouse fibroblasts in growth phase were treated with undiluted acidic electrolyzed water for 30 seconds. After washing with PBS, 100 μl of 1 mg/ml chlorogenic acid (Sigma-Aldrich), caffeic acid (Tokyo Chemical Industry Co., Ltd.) or gallic acid (Tokyo Chemical Industry Co., Ltd.) prepared with serum-free DMEM was added to each well, followed by 5 or 30 minutes of culture under conditions of 37° C. and 5% CO2. After washing with PBS, fresh medium was added, and then the degree of cell proliferation after 24 hours of culture under conditions of 37° C., 5% CO2 was determined by the MTT method. In addition, a significant difference between groups was tested by Tukey-Krammer's multiple comparison test (multiple comparative analysis).
# Similarly to Test 4, mouse fibroblasts in growth phase were treated with undiluted acidic electrolyzed water for 30 seconds. After washing with PBS, 100 μl of 1 mg/ml proanthocyanidin prepared with serum-free DMEM was added to each well, and the resultants were each left to sit at room temperature for 1 minute and 5 minutes. After washing with PBS, fresh medium was added, and then the degree of cell proliferation after 24 hours of culture under conditions of 37° C. and 5% CO2 was determined by the MTT method. In addition, a significant difference between groups was tested by Tukey-Krammer's multiple comparison test (multiple comparative analysis).
# [2] = system: human gingival fibroblasts in growth phase; test: Test 5: post-treatment after acidic electrolyzed water, degree of cell proliferation by MTT method; conditions: four-fold-diluted or undiluted AEW 30 seconds, then 140 mM DMSO or 1 mg/ml proanthocyanidin for 30 minutes; 24 hours culture
# Protocol: A test similar to Test 4 was conducted for human gingival fibroblasts in growth phase. First, human gingival fibroblasts (purchased from Primary Cell Co., Ltd.) were cultured in a 25 cm^2 flask under conditions of 37° C. and 5% CO2, and then a cell suspension was prepared similarly to the case of mouse fibroblasts in medium to a cell density of 2×10^4 cells/ml. 100 μl each of the cell suspension was seeded to each well of a 96-well microplate.
# [3] = system: mouse fibroblasts in stationary phase; test: Test 3: impact of DMSO and proanthocyanidin on intracellular ROS levels increased by acidic electrolyzed water; conditions: four-fold-diluted or undiluted AEW 30 seconds, then 140 mM DMSO or 1 mg/ml proanthocyanidin, 1 hour
# Protocol: Specifically, 100 μl of 1 mM 2',7'-dichlorodihydrofluorescin Diacetate (DCFH-DA) dissolved in serum-free medium (DMEM only) was added to each well, and then cells were cultured for 1 hour under conditions of 37° C. and 5% CO2. After culture, washing with phosphate-buffered saline was performed, 100 μl of 2× Cell Lysis Buffer (Cell Biolabs) and 100 μl of serum-free DMEM were added, and then the resultants were left to stand for 5 minutes. 150 μl of the resultants was transferred from each well to a black 96-well microplate, fluorescence intensities were measured at an excitation wavelength of 450 nm and a fluorescence wavelength of 530 nm using a microplate reader (“FilterMaxTM F5 Multi-Mode Microplate Reader”, Molecular Devices). A standard curve was prepared using 2',7'-dichlorodihydrofluorescein (DCF), and intracellular ROS levels were represented by DCF equivalents (nM). In addition, a significant difference to the average value of each control group (control) was tested by Dunnett's multiple comparison test (multiple comparative analysis). Similarly to Test 2, mouse fibroblasts in stationary phase were treated with four-fold-diluted acidic electrolyzed water and undiluted acidic electrolyzed water for 30 seconds. […] After culture, similarly to Test 2, intracellular ROS levels were determined.
# [4] = undiluted AEW 30 seconds, then 1 mg/ml test substance for 5 or 30 minutes
structure (smiles),measurement,setting,value
Oc1cc(O)c2c(c1)O[C@H](c1ccc(O)c(O)c1)[C@@H](O)C2 [(+)-catechin],"cell proliferation state (degree of cell proliferation, MTT)","[1]; four-fold-diluted and undiluted AEW 30 seconds, then 1 mg/ml (+)-catechin for 30 minutes",significantly improved
"C[S+](C)[O-] [DMSO, dimethyl sulfoxide]","cell proliferation state (degree of cell proliferation, MTT)",[2],no change
same,"cell proliferation state (degree of cell proliferation, MTT)","[1]; four-fold-diluted and undiluted AEW 30 seconds, then 140 mM DMSO or 1 mg/ml proanthocyanidin for 30 minutes",no change
same,ROS level increased by acidic electrolyzed water,[3],significantly decreased
O=C(O)/C=C/c1ccc(O)c(O)c1 [caffeic acid],"cell proliferation state (degree of cell proliferation, MTT)",[1]; [4],significantly improved
O=C(/C=C/c1ccc(O)c(O)c1)O[C@@H]1C[C@](O)(C(=O)O)C[C@@H](O)[C@H]1O [chlorogenic acid],"cell proliferation state (degree of cell proliferation, MTT)",[1]; [4],significantly improved
O=C(O)c1cc(O)c(O)c(O)c1 [gallic acid],"cell proliferation state (degree of cell proliferation, MTT)",[1]; [4],significantly improved
